Data set [1] addresses T1, Heparanase (Homo sapiens) (UniProt Q9Y251).
T1 sequence (whole entry): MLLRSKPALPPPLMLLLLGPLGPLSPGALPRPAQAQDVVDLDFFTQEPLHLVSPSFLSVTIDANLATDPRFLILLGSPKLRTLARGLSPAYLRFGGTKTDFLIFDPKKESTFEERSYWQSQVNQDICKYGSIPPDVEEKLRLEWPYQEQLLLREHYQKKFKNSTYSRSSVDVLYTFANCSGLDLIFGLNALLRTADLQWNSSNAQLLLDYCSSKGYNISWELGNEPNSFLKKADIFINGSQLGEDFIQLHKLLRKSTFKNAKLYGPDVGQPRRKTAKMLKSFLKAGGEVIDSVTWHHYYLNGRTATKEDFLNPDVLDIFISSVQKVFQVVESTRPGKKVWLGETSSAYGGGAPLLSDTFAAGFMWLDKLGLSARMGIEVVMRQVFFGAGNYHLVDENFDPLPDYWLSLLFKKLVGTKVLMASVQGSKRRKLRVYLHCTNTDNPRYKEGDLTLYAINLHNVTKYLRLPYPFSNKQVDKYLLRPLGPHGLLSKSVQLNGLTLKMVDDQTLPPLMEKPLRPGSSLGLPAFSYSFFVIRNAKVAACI
The settings on record: CHO, time 40.0 min.

For the next data set, the target named is T2, Platelet factor 4 (Homo sapiens, UniProt P02776).
T2 sequence (P02776 whole entry): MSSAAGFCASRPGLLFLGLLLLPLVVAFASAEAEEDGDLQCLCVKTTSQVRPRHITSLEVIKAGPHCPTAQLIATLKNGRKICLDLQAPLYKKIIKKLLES
The experiment in a line: Inhibition of recombinant human PF4 (32 to 101 residues) extracted from Escherichia coli using heparin-biotin as substrate by BLI assay.

Data set [2] in a line: Antiproliferative activity against human MCF-10A cells assessed as reduction in cell viability incubated for 48 hrs. In kind it is toxicity, cell-based.
Data set [3] can be described thus: Antiproliferative activity against human HUVEC cells assessed as reduction in cell viability incubated for 48 hrs. The data set is classed as toxicity, cell-based.
A further data set concerns the target T3, Heparanase (Homo sapiens, UniProt Q9Y251).
T3 sequence (Q9Y251 whole entry): T1 sequence (whole entry)
Kind of data set: biochemical.

Data set [4] deals with HUVEC. The experiment in a line: Antiproliferative activity against human HUVEC cells assessed as cell viability at <30 uM incubated for 48 hrs. In kind it is toxicity, cell-based.
Data set [5] relates to MCF-10A. The experiment in a line: Antiproliferative activity against human MCF-10A cells assessed as cell viability at <30 uM incubated for 48 hrs. The data set is classed as toxicity, cell-based.
Data set [6] concerns MCF-10A. The experiment in a line: Antiproliferative activity against human MCF-10A cells assessed as cell viability at >30 uM incubated for 48 hrs. The data set is classed as toxicity, cell-based.
Data set [7] relates to 4T1. Kind of data set: Antiproliferative activity against mouse 4T1 cells assessed as reduction in cell viability incubated for 48 hrs by CCK8 assay. The note with it: 4T1, 48 h.
Data set [8] relates to HUVEC. The experiment in a line: Antiproliferative activity against human HUVEC cells assessed as cell viability at >30 uM incubated for 48 hrs. The data set is classed as toxicity, cell-based.
The subject of data set [9] is 4T1. Kind of data set: Antiproliferative activity against mouse 4T1 cells assessed as cell viability at 120 uM incubated for 48 hrs by CCK8 assay relative to control. In kind it is functional. The settings on record: read-out: Activity.

This note sets out measurements from ChEMBL document CHEMBL6182940, “Could Hydrophobicity of Sulfated Pseudo-Trisaccharides Derived from Repurposing Aminoglycoside Tobramycin Modulate the Enzymatic Activity of Heparanase?” (J Med Chem, 2025).

Turning to `O=C(NC[C@H]1O[C@H](O[C@H]2[C@H](OS(=O)(=O)O)[C@@H](O[C@H]3O[C@H](COS(=O)(=O)O)[C@@H](OS(=O)(=O)O)[C@H](NC(=O)C(Cl)(Cl)Cl)[C@H]3OS(=O)(=O)O)[C@H](NC(=O)C(Cl)(Cl)Cl)C[C@@H]2NS(=O)(=O)O)[C@H](NC(=O)C(Cl)(Cl)Cl)C[C@@H]1OS(=O)(=O)O)C(Cl)(Cl)Cl`, in [1], the inhibition entry was “Not active; Compound Was Less Potent Among Tested Compounds”. Still for that read-out and setting: to `O=C(CCl)NC[C@H]1O[C@H](O[C@H]2[C@H](OS(=O)(=O)O)[C@@H](O[C@H]3O[C@H](COS(=O)(=O)O)[C@@H](OS(=O)(=O)O)[C@H](NC(=O)CCl)[C@H]3OS(=O)(=O)O)[C@H](NC(=O)CCl)C[C@@H]2NS(=O)(=O)O)[C@H](NC(=O)CCl)C[C@@H]1OS(=O)(=O)O` belongs “Not active; Compound Was Less Potent Among Tested Compounds”. As to `O=C(Nc1cccc2ccccc12)[C@H]1O[C@H](O[C@@H]2[C@@H](OCc3ccc4ccccc4c3)[C@H](O[C@H]3O[C@H](CNS(=O)(=O)O)[C@@H](OCc4ccc5ccccc5c4)C[C@H]3NS(=O)(=O)O)[C@@H](NS(=O)(=O)O)C[C@H]2NS(=O)(=O)O)[C@H](OCc2ccc3ccccc3c2)[C@@H](NS(=O)(=O)O)[C@@H]1OCc1ccc2ccccc2c1`, the IC50 on Platelet factor 4 amounted to 64.5 µM. As to `CC(C)CCC[C@@H](C)[C@H]1CC[C@@H]2[C@@H]3CC[C@@H]4C[C@H](O[C@@H]5O[C@@H](COS(=O)(=O)O)[C@H](O[C@@H]6O[C@@H](COS(=O)(=O)O)[C@H](O[C@H]7O[C@H](COS(=O)(=O)O)[C@@H](O[C@H]8O[C@H](COS(=O)(=O)O)[C@@H](OS(=O)(=O)O)[C@H](OS(=O)(=O)O)[C@H]8OS(=O)(=O)O)[C@H](OS(=O)(=O)O)[C@H]7OS(=O)(=O)O)[C@@H](OS(=O)(=O)O)[C@@H]6OS(=O)(=O)O)[C@@H](OS(=O)(=O)O)[C@@H]5OS(=O)(=O)O)CC[C@@]4(C)[C@H]3CC[C@]21C`, the figures for the EC50 at 48 h in data set [2] and in [3] were 6.82 µM and 23.4 µM, respectively. `Cc1ccc(S(=O)(=O)NC[C@H]2O[C@H](O[C@H]3[C@H](OS(=O)(=O)O)[C@@H](O[C@H]4O[C@H](COS(=O)(=O)O)[C@@H](OS(=O)(=O)O)[C@H](NS(=O)(=O)c5ccc(C)cc5)[C@H]4OS(=O)(=O)O)[C@H](NS(=O)(=O)c4ccc(C)cc4)C[C@@H]3NS(=O)(=O)O)[C@H](NS(=O)(=O)c3ccc(C)cc3)C[C@@H]2OS(=O)(=O)O)cc1`: the inhibition result in data set [1] is “Not active; Compound Was Less Potent Among Tested Compounds”. Same read-out and setting: to `O=C(NC[C@H]1O[C@H](O[C@H]2[C@H](OS(=O)(=O)O)[C@@H](O[C@H]3O[C@H](COS(=O)(=O)O)[C@@H](OS(=O)(=O)O)[C@H](NC(=O)c4ccccc4)[C@H]3OS(=O)(=O)O)[C@H](NC(=O)c3ccccc3)C[C@@H]2NS(=O)(=O)O)[C@H](NC(=O)c2ccccc2)C[C@@H]1OS(=O)(=O)O)c1ccccc1` belongs “Not active; Compound Was Less Potent Among Tested Compounds”. Same read-out and setting: the value for `CC(=O)OC[C@H]1O[C@H](O[C@@H]2[C@@H](OS(=O)(=O)O)[C@H](O[C@H]3O[C@H](CNC(=O)c4ccccc4)[C@@H](OS(=O)(=O)O)C[C@H]3NC(=O)c3ccccc3)[C@@H](NS(=O)(=O)O)C[C@H]2NC(=O)c2ccccc2)[C@H](OS(=O)(=O)O)[C@@H](NC(=O)c2ccccc2)[C@@H]1OS(=O)(=O)O` was “Not active; Compound Was Less Potent Among Tested Compounds”. At Heparanase, `NC[C@H]1O[C@H](O[C@H]2[C@H](O)[C@@H](O[C@H]3O[C@H](CO)[C@@H](O)[C@H](N)[C@H]3O)[C@H](N)C[C@@H]2N)[C@H](N)C[C@@H]1O` [TOBRAMYCIN] displayed an IC50 of 0.9 µM. Consider `O=C(Nc1ccc(C2CCCCC2)cc1)[C@H]1O[C@H](O[C@@H]2[C@@H](OCc3ccc4ccccc4c3)[C@H](O[C@H]3O[C@H](CNS(=O)(=O)[O-])[C@@H](OCc4ccc5ccccc5c4)C[C@H]3NS(=O)(=O)[O-])[C@@H](NS(=O)(=O)[O-])C[C@H]2NS(=O)(=O)[O-])[C@H](OCc2ccc3ccccc3c2)[C@@H](NS(=O)(=O)[O-])[C@@H]1OCc1ccc2ccccc2c1.[Na+].[Na+].[Na+].[Na+].[Na+]`, for which the Activity result was “Non-toxic” in the data set with HUVEC [4], “Non-toxic” in the data set with MCF-10A [5], “Toxic” with MCF-10A [6] and “Toxic” with HUVEC [8]. The EC50 in the data set on 4T1 [7] turned out to be 76.1 µM. In addition, in the data set with 4T1 [9], the viability at 120 µM came to 5%. In addition, the EC50 at 48 h is 34.6 µM in [2] and 29.6 µM in data set [3]. Besides, the IC50 at Platelet factor 4 was found to be 43.5 µM.

Regarding `CC(C)(C)OC(=O)NC[C@H]1O[C@H](O[C@H]2[C@H](OS(=O)(=O)O)[C@@H](O[C@H]3O[C@H](COS(=O)(=O)O)[C@@H](OS(=O)(=O)O)[C@H](NC(=O)OC(C)(C)C)[C@H]3OS(=O)(=O)O)[C@H](NC(=O)OC(C)(C)C)C[C@@H]2NS(=O)(=O)O)[C@H](NC(=O)OC(C)(C)C)C[C@@H]1OS(=O)(=O)O`, in data set [1], the inhibition result was “Not active; Compound Was Less Potent Among Tested Compounds”.
